# Experimental data taken from PubChem BioAssay AID977626 (Broad Institute, 2014).
# Inconclusive results are not listed. Activity calls are given as the source filed them. The rule behind the calls is not given here.
# Test system: not listed separately
# Experiment: selective 23S rRNA G2058 site antibacterials – G2058 mutant GFP vs wild-type RFP, cherry-pick, OD600, dose response (AID 977626)
# Details: E. coli WT-RFP vs G2058 humanized-GFP mixed culture, fluorescence; at 50 µM (top of the series)
row,SMILES,"activity change, negative = inhibition"
1,Cc1ccc(C)c(NC(=O)CSc2nc3nc(-c4cccs4)cc(C(F)(F)F)c3c(=O)[nH]2)c1,-7.41 (inactive)
2,CCN(CC)CCn1c2ccccc2c2nc3ccc([N+](=O)[O-])cc3cc21,26.7 (inactive)
3,O=C(O)c1cc([N+](=O)[O-])ccc1NCc1ccccc1,23.8 (inactive)
4,COc1ccc(Cn2c(-c3ccc(Cl)cc3)c[n+]3ccccc23)cc1,-3.75 (inactive)

# Test system: E. coli WT-RFP vs G2058 humanized-GFP mixed culture, fluorescence
# Experiment: as above
# Details: not given
row,SMILES,AC50 [µM]
1,COc1ccc(NC(=O)c2ccc(-c3ccc([N+](=O)[O-])cc3)o2)cc1,2.63
2,COc1ccc(Nc2oc(-c3ccco3)nc2S(=O)(=O)c2ccc(F)cc2)cc1,3.67
3,COC(=O)c1c(NC(=O)CCC(=O)O)sc(Cc2ccccc2)c1C,9.22

# Same assay, conditions: E. coli WT-RFP vs G2058 humanized-GFP mixed culture; measured here: total growth OD600
row,SMILES,AC50 [µM]
1,Cc1ccc(C)c(NC(=O)CSc2nc3nc(-c4cccs4)cc(C(F)(F)F)c3c(=O)[nH]2)c1,8.26
2,CCN(CC)CCn1c2ccccc2c2nc3ccc([N+](=O)[O-])cc3cc21,4.58
3,COc1ccc(NC(=O)c2ccc(-c3ccc([N+](=O)[O-])cc3)o2)cc1,5.22
4,O=C(O)c1cc([N+](=O)[O-])ccc1NCc1ccccc1,14.4
5,COc1ccc(Cn2c(-c3ccc(Cl)cc3)c[n+]3ccccc23)cc1,45.6
6,COC(=O)c1c(NC(=O)CCC(=O)O)sc(Cc2ccccc2)c1C,3.27

# Same assay, conditions: measured here: G2058 humanized mutant strain GFP
row,SMILES,AC50 [µM]
1,Cc1ccc(C)c(NC(=O)CSc2nc3nc(-c4cccs4)cc(C(F)(F)F)c3c(=O)[nH]2)c1,9.81
2,CCN(CC)CCn1c2ccccc2c2nc3ccc([N+](=O)[O-])cc3cc21,5.66
3,COc1ccc(NC(=O)c2ccc(-c3ccc([N+](=O)[O-])cc3)o2)cc1,> 100
4,O=C(O)c1cc([N+](=O)[O-])ccc1NCc1ccccc1,38.9
5,COC(=O)c1c(NC(=O)CCC(=O)O)sc(Cc2ccccc2)c1C,3.03
